From ChEMBL document CHEMBL4819147, “Design, synthesis and biological evaluation of novel molecules as potent PARP-1 inhibitors” (Bioorg Med Chem Lett, 2021)
pIC50: −log10 of the molar value.

Assays:
[1] = target: T1, Poly [ADP-ribose] polymerase 1 (Homo sapiens, UniProt P09874); assay: Inhibition of PARP1 (unknown origin) at 10 nM relative to control
HCT-116 [2] = assay: Antiproliferative activity against BRCA2-deficient human HCT116 cells assessed as cell growth inhibition; type: functional, cell-based
[3] = Octanol-water partition coefficient, logP of the compound; type: physicochemical
[4] = target: T1, Poly [ADP-ribose] polymerase 1; assay: Inhibition of PARP1 (unknown origin)
HCC1937 = assay: Antiproliferative activity against BRCA1-deficient human HCC1937 cells assessed as cell growth inhibition; type: functional, cell-based
[5] = Intrinsic clearance in human liver microsomes incubated for 50 mins; type: ADME, Microsome
[6] = Half life in human liver microsomes incubated for 50 mins; type: ADME, Microsome
HCT-116 [7] = assay: Potency index, ratio of olaparibIC50 to test compound IC50 for antiproliferative activity against BRCA2-deficient human HCT116 cells assessed as cell growth inhibition; type: functional

T1 sequence (P09874 whole entry): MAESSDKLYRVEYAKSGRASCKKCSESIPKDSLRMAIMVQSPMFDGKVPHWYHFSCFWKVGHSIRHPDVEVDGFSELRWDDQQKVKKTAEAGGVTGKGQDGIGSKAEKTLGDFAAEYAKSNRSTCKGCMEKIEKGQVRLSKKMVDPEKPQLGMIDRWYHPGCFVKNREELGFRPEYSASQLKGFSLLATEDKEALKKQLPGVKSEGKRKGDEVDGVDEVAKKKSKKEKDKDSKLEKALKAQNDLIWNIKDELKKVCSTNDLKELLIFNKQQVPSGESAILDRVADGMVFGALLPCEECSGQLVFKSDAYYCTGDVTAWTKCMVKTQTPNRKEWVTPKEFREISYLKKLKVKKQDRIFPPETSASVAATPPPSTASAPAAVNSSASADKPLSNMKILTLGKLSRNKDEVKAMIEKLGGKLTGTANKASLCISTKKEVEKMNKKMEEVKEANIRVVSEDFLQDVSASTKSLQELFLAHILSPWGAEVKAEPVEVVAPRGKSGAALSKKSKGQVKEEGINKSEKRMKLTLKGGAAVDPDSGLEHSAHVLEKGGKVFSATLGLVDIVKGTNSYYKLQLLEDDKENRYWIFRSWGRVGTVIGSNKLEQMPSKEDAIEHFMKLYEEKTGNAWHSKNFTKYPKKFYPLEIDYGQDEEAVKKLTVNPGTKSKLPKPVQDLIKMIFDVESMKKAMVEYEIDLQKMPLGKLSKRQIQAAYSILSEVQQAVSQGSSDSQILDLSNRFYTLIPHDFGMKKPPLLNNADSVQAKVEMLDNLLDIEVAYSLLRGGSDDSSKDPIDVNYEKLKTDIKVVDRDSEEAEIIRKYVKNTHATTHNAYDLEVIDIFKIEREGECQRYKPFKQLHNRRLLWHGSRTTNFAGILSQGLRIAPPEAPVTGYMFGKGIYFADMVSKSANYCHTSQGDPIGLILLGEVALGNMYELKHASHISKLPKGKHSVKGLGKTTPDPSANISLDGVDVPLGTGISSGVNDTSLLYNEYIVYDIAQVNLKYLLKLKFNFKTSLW

Row | Compound | inhibition [1] [%] | pIC50 (HCT-116 [2]) | pIC50 [4] | pIC50 (HCC1937) | other results
1 | COc1nnc(Cc2ccc(F)c(C(=O)N3CCC(c4nc5c(C(N)=O)cncc5[nH]4)CC3)c2)c2ccccc12 | 40 |  |  |  | 
2 | COc1ncc(C(N)=O)c2nc(C3CCN(C(=O)c4cc(Cc5n[nH]c(=O)c6ccccc56)ccc4F)CC3)[nH]c12 | 98 |  | 8.62 |  | 
3 | O=C(c1cc(Cc2n[nH]c(=O)c3ccccc23)ccc1F)N1CCn2c(nc3ccc(F)cc32)C1 |  | 8.18 | 9.29 | 7.90 | logP [3]: 4.83; CLH [5]: 40 µL/min/mg; half-life [6]: 2.89 h; Ratio IC50 (HCT-116 [7]): 885
4 | O=C(c1cc(Cc2n[nH]c(=O)c3ccccc23)ccc1F)N1CCn2c(nc3ccccc32)C1 |  |  | 9.31 |  | 
5 | O=c1[nH]nc(Cc2ccc(F)c(CN3CCN(c4nc5ccccc5[nH]4)CC3)c2)c2ccccc12 | 42 |  |  |  | 
6 | O=C(c1cc(Cc2n[nH]c(=O)c3ccccc23)ccc1F)N1CCn2c(nc3ccc(Cl)cc32)C1 |  | 7.92 | 9.40 | 7.93 | 
7 | O=c1[nH]nc(Cc2ccc(F)c(CN3CCC(c4nc5ccccc5[nH]4)CC3)c2)c2ccccc12 | 47 |  |  |  | 
8 | Cc1ccc2nc3n(c2c1)CCN(C(=O)c1cc(Cc2n[nH]c(=O)c4ccccc24)ccc1F)C3 |  | 8.00 | 9.33 | 7.94 | 
9 | CCOc1ncc(C(N)=O)c2nc(C3CCN(C(=O)c4cc(Cc5n[nH]c(=O)c6ccccc56)ccc4F)CC3)[nH]c12 | 100 |  | 8.77 |  | 

More lines, main results first:

Row | inhibition [1] [%] | pIC50 (HCT-116 [2]) | pIC50 [4] | pIC50 (HCC1937) | Compound | other results
10 | 100 | 6.31 | 9.72 | 6.21 | O=C(c1cc(Cc2n[nH]c(=O)c3ccccc23)ccc1F)N1CCN(c2nc3ccccc3[nH]2)CC1 | logP [3]: 4.15
11 |  | 5.23 |  | 4.89 | O=C(c1cc(Cc2n[nH]c(=O)c3ccccc23)ccc1F)N1CCN(C(=O)C2CC2)CC1 [OLAPARIB] | logP [3]: 2.79
12 | 100 |  | 9.20 |  | O=C(c1cc(Cc2n[nH]c(=O)c3ccccc23)ccc1F)N1CCC(c2nc3ccccc3[nH]2)CC1 | 
13 |  | 3.79 | 9.64 | 3.89 | NC(=O)c1cncc2[nH]c(C3CCN(C(=O)c4cc(Cc5n[nH]c(=O)c6ccccc56)ccc4F)CC3)nc12 | 
